Key:
Type in all cases: in vivo
[1] = system: barley (winter barley, Hordeum vulgare); assay: Test C postemergence: barley
Description: (§1) At the same time, plants selected from these crop and weed species and also barley (winter barley, Hordeum vulgare), canarygrass (Phalaris minor), chickweed (common chickweed, Stellaria media) windgrass (Apera spica-venti) and deadnettle (henbit deadnettle, Lamium amplexicaule) were planted in pots containing Redi-Earth® planting medium (Scotts Company, 14111 Scottslawn Road, Marysville, Ohio 43041) comprising spaghnum peat moss, vermiculite, wetting agent and starter nutrients and treated with postemergence applications of test chemicals formulated in the same manner. Plants ranged in height from 2 to 18 cm (1- to 4-leaf stage) for postemergence treatments.
(§2) Treated plants and controls were maintained in a greenhouse for 13 to 15 days, after which time all species were compared to controls and visually evaluated. Plant response ratings, summarized in Table C, are based on a scale of 0 to 100 where 0 is no effect and 100 is complete control. A dash (-) response means no test result.

[2] = system: woolly cupgrass (Eriochloa villosa); assay: Test C pre-/postemergence: woolly cupgrass
How it was run: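 Preemergence on seeds in loam/sand, postemergence on 2–18 cm (1–4-leaf) plants in peat-based medium; compounds in non-phytotoxic solvent with surfactant. After 13–15 days in greenhouse, visual rating versus controls, 0 (no effect) to 100 (complete control).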

[3] = system: common (oilseed) sunflower (Helianthus annuus); assay: Test C pre-/postemergence: sunflower; conditions: Preemergence
Description: Seeds of plant species selected from blackgrass (Alopecurus myosuroides), bromegrass, downy (downy bromegrass, Bromus tectorum), foxtail, green (green foxtail, Setaria viridis), ryegrass, Italian (Italian ryegrass, Lolium multiflorum), winter wheat (Triticum aestivum), wild oat (Avena fatua), galium (catchweed bedstraw, Galium aparine), bermudagrass (Cynodon dactylon), surinam grass (Brachiaria decumbens), cocklebur (common cocklebur, Xanthium strumarium), corn (Zea mays), large crabgrass (Digitaria sanguinalis), woolly cupgrass (Eriochloa villosa), foxtail, giant (giant foxtail, Setaria faberii), goosegrass (Eleusine indica), johnsongrass (Sorghum halepense), kochia (Kochia scoparia), lambsquarters (Chenopodium album), morningglory (Ipomoea coccinea), nightshade (eastern black nightshade, Solanum ptycanthum), nutsedge, yellow (yellow nutsedge, Cyperus esculentus), pigweed (Amaranthus retroflexus), ragweed (common ragweed, Ambrosia elation), soybean (Glycine max), common (oilseed) sunflower (Helianthus annuus), Russian thistle (Salsola kali) and velvetleaf (Abutilon theophrasti) were planted into a blend of loam soil and sand and treated preemergence with test chemicals formulated in a non-phytotoxic solvent mixture which included a surfactant.
as §1, §2

[4] = system: deadnettle (henbit deadnettle, Lamium amplexicaule); assay: Test C postemergence: deadnettle
How it was run: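 Visual 0–100 injury score vs untreated controls (0 none, 100 complete control), taken 13–15 d after treatment. Postemergence spray on potted plants, 2–18 cm, 1–4 leaves; greenhouse.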

[5] = system: bluegrass (annual bluegrass, Poa annua); assay: Test D pre-/postemergence: bluegrass
Description: (§3) Seeds of plant species selected from bluegrass (annual bluegrass, Poa annua), blackgrass (Alopecurus myosuroides), canarygrass (Phalaris minor), chickweed (common chickweed, Stellaria media), galium (catchweed bedstraw, Galium aparine), bromegrass, downy (downy bromegrass, Bromus tectorum), field poppy (Papaver rhoeas), field violet (Viola arvensis), foxtail, green (green foxtail, Setaria viridis), deadnettle (henbit deadnettle, Lamium amplexicaule), ryegrass, Italian (Italian ryegrass, Lolium multiflorum), kochia (Kochia scoparia), lambsquarters (Chenopodium album), oilseed rape (Brassica napus), pigweed (Amaranthus retroflexus), Russian thistle (Salsola iberica), chamomile (scentless chamomile, Matricaria inodora), speedwell (bird's-eye speedwell, Veronica persica), barley, spring (spring barley, Hordeum vulgare), wheat, spring (spring wheat, Triticum aestivum), buckwheat, wild (wild buckwheat, Polygonum convolvulus), mustard, wild (wild mustard, Sinapis arvensis), oat, wild (wild oat, Avena fatua), radish, wild (wild radish, Raphanus raphanistrum), windgrass (Apera spica-venti), barley, winter (winter barley, Hordeum vulgare), and wheat, winter (winter wheat, Triticum aestivum) were planted into a silt loam soil and treated preemergence with test chemicals formulated in a non-phytotoxic solvent mixture which included a surfactant. At the same time, these same crop and weed species were planted in pots containing the planting medium comprising spaghnum peat moss, vermiculite, wetting agent and starter nutrients and treated with postemergence applications of the test chemicals formulated in the same manner. Plants ranged in height from 2 to 18 cm (1- to 4-leaf stage).
as §2, with “controlled growth environment” for “greenhouse”, “14” for “13”, “21 days” for “15 days,”, “D,” for “C,”

[6] = system: deadnettle (henbit deadnettle, Lamium amplexicaule); assay: Test D pre-/postemergence: deadnettle
Description: as §3
as §2, with “controlled growth environment” for “greenhouse”, “14” for “13”, “21 days” for “15 days,”, “D,” for “C,”

[7] = system: oilseed rape (Brassica napus); assay: Test D pre-/postemergence: oilseed rape
Description: as §3
as §2, with “controlled growth environment” for “greenhouse”, “14” for “13”, “21 days” for “15 days,”, “D,” for “C,”

[8] = system: chickweed (common chickweed, Stellaria media); assay: Test D pre-/postemergence: chickweed
Description: as §3
as §2, with “controlled growth environment” for “greenhouse”, “14” for “13”, “21 days” for “15 days,”, “D,” for “C,”

[9] = system: barley, winter (winter barley, Hordeum vulgare); assay: Test D pre-/postemergence: barley, winter
Description: as §3
as §2, with “controlled growth environment” for “greenhouse”, “14” for “13”, “21 days” for “15 days,”, “D,” for “C,”

[10] = system: speedwell (bird's-eye speedwell, Veronica persica); assay: Test D pre-/postemergence: speedwell; conditions: Preemergence
Description: as §3
as §2, with “controlled growth environment” for “greenhouse”, “14” for “13”, “21 days” for “15 days,”, “D,” for “C,”

[11] = 31 g ai/ha, scale 0 to 100 (0 no effect, 100 complete control)
[12] = 62 g ai/ha, scale 0 to 100 (0 no effect, 100 complete control)
[13] = 125 g ai/ha, scale 0 to 100, 0 no effect, 100 complete control
[14] = Postemergence, 31 g ai/ha, scale 0 to 100 (0 no effect, 100 complete control)
[15] = Postemergence, 62 g ai/ha, scale 0 to 100 (0 no effect, 100 complete control)
[16] = Postemergence, 125 g ai/ha, scale 0 to 100, 0 no effect, 100 complete control
[17] = Postemergence, 250 g ai/ha, scale 0 to 100
[18] = Preemergence, 31 g ai/ha, scale of 0 to 100, 0 is no effect, 100 is complete control
[19] = Preemergence, 62 g ai/ha, scale of 0 to 100, 0 is no effect, 100 is complete control
[20] = Preemergence, 125 g ai/ha, scale 0 to 100, 0 no effect, 100 complete control
[21] = Preemergence, 250 g ai/ha, scale 0 to 100, 0 no effect, 100 complete control
[22] = 31 g ai/ha, scale of 0 to 100, 0 is no effect, 100 is complete control
[23] = 62 g ai/ha, scale of 0 to 100, 0 is no effect, 100 is complete control
[24] = 250 g ai/ha, scale 0 to 100, 0 no effect, 100 complete control
[25] = Postemergence, 16 g ai/ha, scale 0 to 100
[26] = Preemergence, 16 g ai/ha, scale 0 to 100 (0 no effect, 100 complete control)
[27] = Preemergence, 31 g ai/ha, scale 0 to 100 (0 no effect, 100 complete control)
[28] = Preemergence, 62 g ai/ha, scale 0 to 100
[29] = Preemergence, 125 g ai/ha, scale 0 to 100

Cc1nn(-c2ccc(C(F)(F)F)cc2)nc1Cc1ccnc(C(F)(F)F)c1 [Compound 47, 4-[[5-methyl-2-[4-(trifluoromethyl)phenyl]-2H-1,2,3-triazol-4-yl]methyl]-2-(trifluoromethyl)pyridine]
Plant response rating, Barley [1, 11]: 35
Plant response rating, Barley [1, 12]: 45
Plant response rating, Barley [1, 13]: 50
Plant response rating, Barley ([1]; 250 g ai/ha, scale 0 to 100): 55
Plant response rating, Cupgrass, Woolly [2, 14]: 55
Plant response rating, Cupgrass, Woolly [2, 15]: 65
Plant response rating, Cupgrass, Woolly [2, 16]: 80
Plant response rating, Cupgrass, Woolly [2, 17]: 90
Plant response rating, Cupgrass, Woolly [2, 18]: 45
Plant response rating, Cupgrass, Woolly [2, 19]: 80
Plant response rating, Cupgrass, Woolly [2, 20]: 95
Plant response rating, Cupgrass, Woolly [2, 21]: 98
Plant response rating, Sunflower [3, 22]: 0
Plant response rating, Sunflower [3, 23]: 0
Plant response rating, Sunflower [3, 13]: 0
Plant response rating, Sunflower [3, 24]: 10
Plant response rating, Deadnettle [4, 11]: 95
Plant response rating, Deadnettle [4, 12]: 100
Plant response rating, Deadnettle [4, 13]: 100
Plant response rating, Deadnettle ([4]; 250 g ai/ha, scale 0 to 100): 100

Cc1nn(-c2ccc(F)c(C(F)(F)F)c2)nc1Oc1ccnc(C(F)(F)F)c1 [Compound 147]
Plant response rating: Bluegrass [5, 14]: 10
Plant response rating: Bluegrass [5, 15]: 55
Plant response rating: Bluegrass [5, 16]: 70
Plant response rating, Bluegrass [5, 25]: 5
Plant response rating, Bluegrass [5, 26]: 0
Plant response rating, Bluegrass [5, 27]: 15
Plant response rating, Bluegrass [5, 28]: 20
Plant response rating, Bluegrass [5, 29]: 35
Plant response rating: Deadnettle [6, 14]: 95
Plant response rating: Deadnettle [6, 15]: 90
Plant response rating: Deadnettle [6, 16]: 100
Plant response rating, Deadnettle [6, 25]: 65
Plant response rating, Deadnettle [6, 26]: 5
Plant response rating, Deadnettle [6, 27]: 10
Plant response rating, Deadnettle [6, 28]: 100
Plant response rating, Deadnettle [6, 29]: 100
Plant response rating: Oilseed Rape [7, 14]: 60
Plant response rating: Oilseed Rape [7, 15]: 95
Plant response rating: Oilseed Rape [7, 16]: 100
Plant response rating, Oilseed Rape [7, 25]: 25
Plant response rating, Oilseed Rape [7, 26]: 0
Plant response rating, Oilseed Rape [7, 27]: 0
Plant response rating, Oilseed Rape [7, 28]: 5
Plant response rating, Oilseed Rape [7, 29]: 15
Plant response rating, Cupgrass, Woolly [2, 18]: 50
Plant response rating, Cupgrass, Woolly [2, 19]: 55
Plant response rating, Cupgrass, Woolly [2, 20]: 95
Plant response rating, Cupgrass, Woolly [2, 21]: 98
Plant response rating: Chickweed [8, 14]: 70
Plant response rating: Chickweed [8, 15]: 80
Plant response rating: Chickweed [8, 16]: 80
Plant response rating, Chickweed [8, 25]: 60
Plant response rating, Chickweed [8, 26]: 35
Plant response rating, Chickweed [8, 27]: 85
Plant response rating, Chickweed [8, 28]: 70
Plant response rating, Chickweed [8, 29]: 100
Plant response rating: Barley, Winter [9, 14]: 20
Plant response rating: Barley, Winter [9, 15]: 25
Plant response rating: Barley, Winter [9, 16]: 30
Plant response rating, Barley, Winter [9, 25]: 15
Plant response rating, Barley, Winter [9, 26]: 0
Plant response rating, Barley, Winter [9, 27]: 0
Plant response rating, Barley, Winter [9, 28]: 5
Plant response rating, Barley, Winter [9, 29]: 15
Plant response rating, Sunflower [3, 22]: 15
Plant response rating, Sunflower [3, 23]: 15
Plant response rating, Sunflower [3, 13]: 15
Plant response rating, Sunflower [3, 24]: 25
Plant response rating, Speedwell ([10]; 16 g ai/ha, scale 0 to 100 (0 no effect, 100 complete control)): 10
Plant response rating, Speedwell [10, 11]: 20
Plant response rating, Speedwell ([10]; 62 g ai/ha, scale 0 to 100): 100
Plant response rating, Speedwell ([10]; 125 g ai/ha, scale 0 to 100): 100

Fc1ccc(-n2nc(Cc3ccnc(C(F)(F)F)c3)c(OCC(F)(F)F)n2)cc1 [Compound 142]
Plant response rating, Barley [1, 11]: 20
Plant response rating, Barley [1, 12]: 35
Plant response rating, Barley [1, 13]: 40
Plant response rating, Barley ([1]; 250 g ai/ha, scale 0 to 100): 45
Plant response rating, Cupgrass, Woolly [2, 14]: 40
Plant response rating, Cupgrass, Woolly [2, 15]: 40
Plant response rating, Cupgrass, Woolly [2, 16]: 75
Plant response rating, Cupgrass, Woolly [2, 17]: 85
Plant response rating, Cupgrass, Woolly [2, 18]: 55
Plant response rating, Cupgrass, Woolly [2, 19]: 70
Plant response rating, Cupgrass, Woolly [2, 20]: 95
Plant response rating, Cupgrass, Woolly [2, 21]: 98
Plant response rating, Sunflower [3, 22]: 15
Plant response rating, Sunflower [3, 13]: 15
Plant response rating, Sunflower [3, 24]: 25
Plant response rating, Deadnettle [4, 11]: 100
Plant response rating, Deadnettle [4, 12]: 100
Plant response rating, Deadnettle [4, 13]: 100
Plant response rating, Deadnettle ([4]; 250 g ai/ha, scale 0 to 100): 100

From patent US9302999B2, “Substituted triazoles as herbicides” (E. I. DU PONT DE NEMOURS AND COMPANY, priority 2012, dated 2016)
